Reference: patent US20200240995A1, “KDAC VARIANTS AND USES THEREOF” (Max-Planck-Gesellschaft Zur Forderung Der Wissenschaften …, priority 2017, published 2020)

Assays:
SirT2 = target: T1, SirT2 (Homo sapiens, UniProt Q8IXJ6); assay: FLuc K529ac-based KDAC assay, inhibition or activation of SirT2 deacetylation
T1 sequence (Q8IXJ6 56-356): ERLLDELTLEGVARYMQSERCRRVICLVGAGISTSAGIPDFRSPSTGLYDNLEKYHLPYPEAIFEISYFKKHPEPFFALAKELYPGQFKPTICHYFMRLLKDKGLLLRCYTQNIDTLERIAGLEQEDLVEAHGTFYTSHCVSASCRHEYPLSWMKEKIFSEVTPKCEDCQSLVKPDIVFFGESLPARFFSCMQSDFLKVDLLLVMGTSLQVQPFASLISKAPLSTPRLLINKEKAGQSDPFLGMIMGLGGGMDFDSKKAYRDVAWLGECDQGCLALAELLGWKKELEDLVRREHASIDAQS

KDACs = assay: FLuc K529ac activation by different KDACs; assay type: biochemical; conditions: purified FLuc K529ac
Experimental: FIG. 7: FLuc K529ac activation by different KDACs. Sirtuins were used at 20 μg/ml, while HDAC8 concentration was 10 mg/ml with tenfold higher FLuc K529ac. All error bars are standard deviations of triplicates.
It was tested whether purified FLuc K529ac can be used to quantify KDAC activity by incubating it with various different KDACs (FIG. 7). Prior to treatment with a KDAC the enzyme produced very little bioluminescence. After incubation with various KDACs the luminescence increased up to 130 fold.

IC50 (SirT2) [µM] | Compound | Luminescence increase after incubation with various KDACs (KDACs)
5.5 | Oc1cc(O)cc(/C=C/c2ccc(O)c(O)c2)c1 [Compound 2, piceatannol] | –
– | FLuc K529ac: Firefly luciferase with N(ε)-acetyl-lysine in place of K529, reporter substrate for KDACs | up to 130 fold
